Experiment [1] deals with Radical scavenging activity. The experiment can be described thus: Antioxidant activity assessed as DPPH free radical scavenging activity after 30 mins by microplate reader assay. Format: functional.
Experiment [2] is described as follows: Antioxidant activity assessed as inhibition of lipid peroxidation. Format: functional.

This note sets out measurements from ChEMBL document CHEMBL1938305, “Antioxidative oligostilbenes from Caragana sinica” (Bioorg Med Chem Lett, 2012).

Each structure is given as a SMILES string.

As to `Oc1ccc([C@H]2c3c(O)cc(O)cc3[C@H]3c4c(O)cc(O)cc4[C@@H]2[C@H]3c2ccc(O)cc2)cc1`, the IC50 in experiment [1] and in experiment [2] was > 200 µM throughout. Take `Oc1ccc(C2[C@H]3c4cc(O)cc(O)c4[C@@H](c4ccc(O)cc4)[C@@H]2c2cc(O)cc(O)c23)cc1` (stereo partly drawn): the IC50 in experiment [1] and in experiment [2] was > 200 µM in each case.

Consider `Oc1ccc([C@H]2Oc3cc(O)cc4c3[C@@H]2c2cc(O)cc3c2[C@@H](c2cc(O)cc5c2[C@@H]4[C@H](c2ccc(O)cc2)O5)[C@H](c2ccc(O)cc2)O3)cc1` (relative stereo), for which the IC50 in experiment [1] and in experiment [2] was > 200 µM each time. Regarding `Oc1ccc([C@@H]2c3c(O)cc(O)cc3[C@H]3[C@H](c4ccc(O)cc4)c4c(O)cc(O)cc4[C@@H]23)cc1` (relative stereo) [PALLIDOL], the IC50 in experiment [1] was determined as 165 µM; in experiment [2] it was 128 µM. For the molecule `Cc1c(C)c2c(c(C)c1O)CC[C@@](C)(CCC[C@H](C)CCC[C@H](C)CCCC(C)C)O2` [ALPHA-TOCOPHEROL], the IC50 in experiment [2] amounted to 12.5 µM. On to `O=C1O[C@H]([C@@H](O)CO)C(O)=C1O` [ASCORBIC ACID], for which the IC50 in experiment [1] is 57.2 µM. With `O=C(c1ccc(O)cc1)[C@H]1c2cc(O)cc(O)c2[C@@H](c2ccc(O)cc2)[C@H]1c1cc(O)cc(O)c1` [CARAPHENOL B], the IC50 in experiment [1] stood at 73.9 µM; in experiment [2], 43.1 µM. Regarding `COc1cc(O)cc2c1C(=O)C(O)(Cc1ccc(O)cc1)O2` (stereo not drawn) [CARPUSIN], the IC50 in experiment [1] and in experiment [2] was > 200 µM in each case. Take `Oc1ccc([C@H]2Oc3cc(O)cc([C@@H]4[C@H](c5cc(O)cc(O)c5)[C@@H](c5ccc(O)cc5)O[C@H]4c4ccc(O)cc4)c3[C@@H]2c2cc(O)c3c(c2)[C@@H](c2cc(O)cc(O)c2)[C@H](c2ccc(O)cc2)O3)cc1` [KOBOPHENOL A]: the IC50 in experiment [1] and in experiment [2] was > 200 µM in each case. Take `Oc1ccc(/C=C/c2cc(O)cc(O)c2)cc1` [RESVERATROL]: the IC50 in experiment [1] worked out at 92.1 µM; in experiment [2] it was 30.1 µM.
